Source: ChEMBL document CHEMBL3832073, “DailyMed|setid=217e52b5-3a7b-4bbe-af3c-b18de7d426c3 | ABILIFY - aripiprazole tablet|Rebel Distributors Corp”

Key:
[1] = Evaluation of pharmacokinetic parameters for Aripiprazole following oral, intravenous or intramuscular administration of azipiprazole.; assay type: ADME, organism-based; settings: human, in vivo, dosed compound id 19, dosed compound name ARIPIPRAZOLE, tissue Plasma
[2] = Evaluation of pharmacokinetic parameters for Aripiprazole following single oral administration of azipiprazole.; assay type: ADME, organism-based; settings: human, in vivo, dosed compound id 19, dosed compound name ARIPIPRAZOLE, regimen Single dose, tissue Plasma

## O=C1CCc2ccc(OCCCCN3CCN(c4cccc(Cl)c4Cl)CC3)cc2N1 [ARIPIPRAZOLE]
[1]; im, at 5 mg, gender male and female, route intramuscular
  bioavailability: 100%
[1]; im, gender male and female, route intramuscular
  Tmax: 1 h
[1]; route iv, read-out: Vss
  Vd: 404 L
[2]
  Tmax: 3 to 5 h
